Measurements published in ChEMBL document CHEMBL4507302, “Data for DCP probe TP-020” (2021).

Experiments:
Conditions in all cases: Compound concentration 1000.0 nM
[1] = biological target: G protein-coupled receptor kinase 3 (Homo sapiens) (UniProt P35626)
[2] = biological target: Tyrosine-protein kinase ZAP-70 (Homo sapiens) (UniProt P43403)
[3] = biological target: Serine/threonine-protein kinase Sgk3 (Homo sapiens) (UniProt Q96BR1)
[4] = biological target: Mitogen-activated protein kinase 10 (Homo sapiens) (UniProt P53779)
[5] = biological target: Serine/threonine-protein kinase/endoribonuclease IRE1 (Homo sapiens) (UniProt O75460)
[6] = biological target: Cyclin-dependent kinase 2 homolog (Plasmodium falciparum (isolate 3D7)) (UniProt P61075)
[7] = biological target: Serine/threonine-protein kinase Nek5 (Homo sapiens) (UniProt Q6P3R8)
[8] = biological target: Activin receptor type-1-like (Homo sapiens) (UniProt P37023)
[9] = biological target: Serine/threonine-protein kinase BRSK2 (Homo sapiens) (UniProt Q8IWQ3)
[10] = biological target: Phosphatidylinositol 4-phosphate 3-kinase C2 domain-containing subunit beta (Homo sapiens) (UniProt O00750)
[11] = biological target: Ribosomal protein S6 kinase alpha-5 (Homo sapiens) (UniProt O75582)
[12] = biological target: Serine/threonine-protein kinase NLK (Homo sapiens) (UniProt Q9UBE8)
[13] = biological target: Mitogen-activated protein kinase kinase kinase 1 (Homo sapiens) (UniProt Q13233)
[14] = biological target: 3-phosphoinositide-dependent protein kinase 1 (Homo sapiens) (UniProt O15530)
[15] = biological target: STE20-like serine/threonine-protein kinase (Homo sapiens) (UniProt Q9H2G2)
[16] = biological target: Ribosomal protein S6 kinase alpha-1 (Homo sapiens) (UniProt Q15418)
[17] = biological target: Phosphorylase b kinase gamma catalytic chain, skeletal muscle/heart isoform (Homo sapiens) (UniProt Q16816)
[18] = biological target: Protein-tyrosine kinase 2-beta (Homo sapiens) (UniProt Q14289)
[19] = system: Proto-oncogene tyrosine-protein kinase receptor Ret (Homo sapiens), P07949 [M918T]
[20] = biological target: Ribosomal protein S6 kinase alpha-6 (Homo sapiens) (UniProt Q9UK32)
[21] = biological target: Mitogen-activated protein kinase kinase kinase 15 (Homo sapiens) (UniProt Q6ZN16)
[22] = biological target: Macrophage-stimulating protein receptor (Homo sapiens) (UniProt Q04912)
[23] = biological target: Phosphatidylinositol 4,5-bisphosphate 3-kinase catalytic subunit gamma isoform (Homo sapiens) (UniProt P48736)
[24] = biological target: Casein kinase II subunit alpha (Homo sapiens) (UniProt P68400)
[25] = biological target: Macrophage colony-stimulating factor 1 receptor (Homo sapiens) (UniProt P07333)
[26] = system: Epidermal growth factor receptor (Homo sapiens), P00533 [L858R,T790M]
[27] = biological target: Receptor-interacting serine/threonine-protein kinase 2 (Homo sapiens) (UniProt O43353)
[28] = biological target: Vascular endothelial growth factor receptor 3 (Homo sapiens) (UniProt P35916)
[29] = biological target: Serine/threonine-protein kinase PAK 5 (Homo sapiens) (UniProt Q9P286)
[30] = biological target: Serine/threonine-protein kinase Nek3 (Homo sapiens) (UniProt P51956)
[31] = biological target: Serine/threonine-protein kinase MRCK alpha (Homo sapiens) (UniProt Q5VT25)
[32] = biological target: Serine/threonine-protein kinase PAK 2 (Homo sapiens) (UniProt Q13177)
[33] = biological target: Cyclin-dependent kinase 4 (Homo sapiens) (UniProt P11802)
[34] = system: Phosphatidylinositol 4,5-bisphosphate 3-kinase catalytic subunit alpha isoform (Homo sapiens), P42336 [C420R]
[35] = biological target: TGF-beta receptor type-2 (Homo sapiens) (UniProt P37173)
[36] = biological target: Tyrosine-protein kinase Mer (Homo sapiens) (UniProt Q12866)
[37] = biological target: Tyrosine-protein kinase receptor Tie-1 (Homo sapiens) (UniProt P35590)
[38] = biological target: Mitogen-activated protein kinase kinase kinase 13 (Homo sapiens) (UniProt O43283)
[39] = biological target: Serine/threonine-protein kinase haspin (Homo sapiens) (UniProt Q8TF76)
[40] = biological target: Dual specificity mitogen-activated protein kinase kinase 1 (Homo sapiens) (UniProt Q02750)
[41] = biological target: Cyclin-dependent kinase 7 (Homo sapiens) (UniProt P50613)
[42] = biological target: Calcium/calmodulin-dependent protein kinase type 1D (Homo sapiens) (UniProt Q8IU85)
[43] = system: Tyrosine-protein kinase ABL1 (Homo sapiens), P00519 [H396P]
[44] = biological target: Serine/threonine-protein kinase 35 (Homo sapiens) (UniProt Q8TDR2)
[45] = system: Tyrosine-protein kinase ABL1 (Homo sapiens), P00519 [F317I]

Measured: residual activity

Chain of Ribosomal protein S6 kinase alpha-5 (Homo sapiens) (O75582 whole entry, looked up): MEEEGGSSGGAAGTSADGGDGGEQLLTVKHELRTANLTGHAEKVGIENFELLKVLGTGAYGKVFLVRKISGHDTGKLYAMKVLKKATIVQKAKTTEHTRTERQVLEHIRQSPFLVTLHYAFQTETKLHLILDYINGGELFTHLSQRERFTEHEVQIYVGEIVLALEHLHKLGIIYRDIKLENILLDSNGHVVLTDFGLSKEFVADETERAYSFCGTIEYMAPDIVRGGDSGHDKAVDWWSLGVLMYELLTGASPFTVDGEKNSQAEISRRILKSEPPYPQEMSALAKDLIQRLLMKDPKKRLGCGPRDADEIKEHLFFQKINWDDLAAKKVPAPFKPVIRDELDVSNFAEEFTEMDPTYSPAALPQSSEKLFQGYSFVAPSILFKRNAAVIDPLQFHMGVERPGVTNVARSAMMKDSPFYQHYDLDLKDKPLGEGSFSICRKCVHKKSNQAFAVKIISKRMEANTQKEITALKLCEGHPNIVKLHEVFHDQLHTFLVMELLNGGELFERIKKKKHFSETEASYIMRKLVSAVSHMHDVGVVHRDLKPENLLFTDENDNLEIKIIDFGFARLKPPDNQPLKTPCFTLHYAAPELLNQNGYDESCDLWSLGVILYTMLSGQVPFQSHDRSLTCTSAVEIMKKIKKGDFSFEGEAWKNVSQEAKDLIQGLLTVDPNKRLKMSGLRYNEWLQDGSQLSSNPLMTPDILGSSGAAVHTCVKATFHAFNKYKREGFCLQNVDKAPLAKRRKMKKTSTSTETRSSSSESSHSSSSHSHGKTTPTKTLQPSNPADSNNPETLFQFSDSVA
Chain of Serine/threonine-protein kinase/endoribonuclease IRE1 (Homo sapiens) (O75460 19-977 limits assumed): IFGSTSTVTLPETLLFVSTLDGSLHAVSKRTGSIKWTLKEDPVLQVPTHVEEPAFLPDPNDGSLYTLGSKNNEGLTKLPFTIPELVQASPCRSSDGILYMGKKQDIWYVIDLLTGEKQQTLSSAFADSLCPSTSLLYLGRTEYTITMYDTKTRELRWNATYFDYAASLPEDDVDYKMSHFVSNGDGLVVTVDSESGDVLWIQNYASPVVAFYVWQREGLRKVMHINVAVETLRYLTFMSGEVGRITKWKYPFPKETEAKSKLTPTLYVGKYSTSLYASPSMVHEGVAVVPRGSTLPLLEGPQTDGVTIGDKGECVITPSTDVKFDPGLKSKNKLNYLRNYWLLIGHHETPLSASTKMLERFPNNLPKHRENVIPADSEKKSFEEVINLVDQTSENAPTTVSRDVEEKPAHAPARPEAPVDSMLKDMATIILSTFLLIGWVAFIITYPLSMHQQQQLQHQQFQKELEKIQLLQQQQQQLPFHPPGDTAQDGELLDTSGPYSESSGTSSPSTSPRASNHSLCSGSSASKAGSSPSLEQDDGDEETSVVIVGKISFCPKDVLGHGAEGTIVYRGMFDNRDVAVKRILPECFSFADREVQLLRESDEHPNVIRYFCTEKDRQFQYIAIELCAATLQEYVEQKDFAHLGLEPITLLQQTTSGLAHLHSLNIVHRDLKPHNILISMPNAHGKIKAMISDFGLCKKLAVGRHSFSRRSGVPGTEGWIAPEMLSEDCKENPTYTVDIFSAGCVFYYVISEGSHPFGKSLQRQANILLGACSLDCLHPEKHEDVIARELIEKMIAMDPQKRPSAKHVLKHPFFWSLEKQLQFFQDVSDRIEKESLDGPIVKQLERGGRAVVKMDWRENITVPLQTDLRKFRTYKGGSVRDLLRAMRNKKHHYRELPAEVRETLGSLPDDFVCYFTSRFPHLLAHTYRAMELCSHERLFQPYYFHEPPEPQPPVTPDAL
Chain of Cyclin-dependent kinase 4 (Homo sapiens) (P11802 whole entry, canonical isoform): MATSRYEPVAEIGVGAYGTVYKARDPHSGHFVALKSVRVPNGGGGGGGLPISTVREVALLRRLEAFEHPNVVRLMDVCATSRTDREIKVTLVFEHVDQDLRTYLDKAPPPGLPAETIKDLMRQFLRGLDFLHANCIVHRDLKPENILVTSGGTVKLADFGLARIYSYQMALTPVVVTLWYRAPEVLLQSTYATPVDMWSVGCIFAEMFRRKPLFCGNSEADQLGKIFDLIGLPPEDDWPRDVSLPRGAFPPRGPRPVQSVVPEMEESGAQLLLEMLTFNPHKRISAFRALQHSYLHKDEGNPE
Chain of Serine/threonine-protein kinase PAK 5 (Homo sapiens) (Q9P286 whole entry, looked up): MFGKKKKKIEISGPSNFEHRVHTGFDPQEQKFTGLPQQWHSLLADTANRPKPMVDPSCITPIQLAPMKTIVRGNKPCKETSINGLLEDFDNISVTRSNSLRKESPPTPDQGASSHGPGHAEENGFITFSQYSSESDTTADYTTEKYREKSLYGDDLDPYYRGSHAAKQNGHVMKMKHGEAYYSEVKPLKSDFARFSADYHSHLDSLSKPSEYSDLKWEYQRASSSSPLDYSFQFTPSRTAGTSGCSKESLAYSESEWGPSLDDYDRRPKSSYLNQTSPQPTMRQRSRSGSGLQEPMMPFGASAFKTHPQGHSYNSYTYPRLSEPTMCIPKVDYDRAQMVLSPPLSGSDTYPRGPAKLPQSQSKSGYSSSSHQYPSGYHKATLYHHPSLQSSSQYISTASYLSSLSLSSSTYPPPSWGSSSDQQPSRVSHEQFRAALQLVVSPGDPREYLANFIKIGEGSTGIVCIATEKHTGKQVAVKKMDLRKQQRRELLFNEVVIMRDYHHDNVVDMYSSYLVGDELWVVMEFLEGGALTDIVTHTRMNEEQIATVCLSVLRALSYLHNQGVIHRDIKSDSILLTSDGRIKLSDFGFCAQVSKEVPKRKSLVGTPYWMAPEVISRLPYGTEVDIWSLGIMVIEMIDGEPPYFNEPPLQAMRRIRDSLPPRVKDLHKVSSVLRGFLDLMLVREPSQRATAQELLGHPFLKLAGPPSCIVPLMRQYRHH
Chain of Receptor-interacting serine/threonine-protein kinase 2 (Homo sapiens) (O43353 whole entry): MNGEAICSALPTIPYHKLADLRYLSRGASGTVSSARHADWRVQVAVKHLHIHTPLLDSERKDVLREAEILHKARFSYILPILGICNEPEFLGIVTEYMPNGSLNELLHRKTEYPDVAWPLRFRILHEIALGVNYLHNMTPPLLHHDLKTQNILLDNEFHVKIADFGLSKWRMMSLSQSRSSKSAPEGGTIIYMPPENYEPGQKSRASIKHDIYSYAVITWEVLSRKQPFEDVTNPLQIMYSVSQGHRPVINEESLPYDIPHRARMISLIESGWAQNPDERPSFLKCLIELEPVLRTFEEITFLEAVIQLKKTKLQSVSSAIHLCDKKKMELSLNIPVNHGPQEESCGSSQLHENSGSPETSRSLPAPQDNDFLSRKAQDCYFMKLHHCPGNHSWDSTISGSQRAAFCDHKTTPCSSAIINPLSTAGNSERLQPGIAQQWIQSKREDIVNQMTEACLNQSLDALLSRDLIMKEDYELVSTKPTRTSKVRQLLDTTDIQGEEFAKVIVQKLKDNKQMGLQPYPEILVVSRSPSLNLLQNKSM
Chain of Phosphorylase b kinase gamma catalytic chain, skeletal muscle/heart isoform (Homo sapiens) (Q16816 whole entry, looked up, canonical isoform): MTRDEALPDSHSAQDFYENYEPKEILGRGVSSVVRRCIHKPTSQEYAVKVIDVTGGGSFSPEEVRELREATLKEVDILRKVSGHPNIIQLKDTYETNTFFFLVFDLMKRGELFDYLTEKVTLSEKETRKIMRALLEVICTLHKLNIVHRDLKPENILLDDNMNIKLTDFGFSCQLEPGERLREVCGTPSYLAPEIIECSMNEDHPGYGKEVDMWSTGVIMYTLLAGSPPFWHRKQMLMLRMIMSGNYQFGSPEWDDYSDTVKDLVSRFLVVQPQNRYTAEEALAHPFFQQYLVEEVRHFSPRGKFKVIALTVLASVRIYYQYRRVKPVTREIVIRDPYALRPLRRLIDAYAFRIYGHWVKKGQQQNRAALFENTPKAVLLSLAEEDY
Chain of Activin receptor type-1-like (Homo sapiens) (P37023 whole entry): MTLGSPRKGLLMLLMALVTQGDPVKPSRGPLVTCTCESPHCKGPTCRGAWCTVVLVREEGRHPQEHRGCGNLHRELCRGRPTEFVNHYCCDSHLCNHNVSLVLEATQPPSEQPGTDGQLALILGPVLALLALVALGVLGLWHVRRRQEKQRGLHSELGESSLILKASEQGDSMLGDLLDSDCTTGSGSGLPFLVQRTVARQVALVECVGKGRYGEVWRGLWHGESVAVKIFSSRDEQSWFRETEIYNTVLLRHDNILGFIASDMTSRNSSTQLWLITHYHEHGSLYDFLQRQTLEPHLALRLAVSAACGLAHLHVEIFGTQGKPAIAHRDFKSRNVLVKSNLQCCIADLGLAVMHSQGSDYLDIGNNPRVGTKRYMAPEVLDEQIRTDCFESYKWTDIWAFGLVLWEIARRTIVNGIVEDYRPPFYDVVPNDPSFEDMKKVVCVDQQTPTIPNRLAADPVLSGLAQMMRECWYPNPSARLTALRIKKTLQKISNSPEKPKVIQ
Chain of Serine/threonine-protein kinase Nek3 (Homo sapiens) (P51956 whole entry): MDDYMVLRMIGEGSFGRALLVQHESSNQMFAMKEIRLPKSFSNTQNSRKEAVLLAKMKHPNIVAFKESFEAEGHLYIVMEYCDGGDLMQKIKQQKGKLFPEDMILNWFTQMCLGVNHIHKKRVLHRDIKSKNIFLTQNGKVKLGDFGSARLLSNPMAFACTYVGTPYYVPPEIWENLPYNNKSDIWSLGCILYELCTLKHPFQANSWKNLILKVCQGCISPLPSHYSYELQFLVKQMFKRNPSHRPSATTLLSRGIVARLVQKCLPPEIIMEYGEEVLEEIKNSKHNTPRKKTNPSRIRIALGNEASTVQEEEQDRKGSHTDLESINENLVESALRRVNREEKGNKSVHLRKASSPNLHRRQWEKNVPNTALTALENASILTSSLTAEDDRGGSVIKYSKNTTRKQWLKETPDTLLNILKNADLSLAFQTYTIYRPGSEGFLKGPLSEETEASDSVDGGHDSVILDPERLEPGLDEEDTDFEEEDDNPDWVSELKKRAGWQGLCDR
Chain of Cyclin-dependent kinase 2 homolog (Plasmodium falciparum (isolate 3D7)) (P61075 whole entry): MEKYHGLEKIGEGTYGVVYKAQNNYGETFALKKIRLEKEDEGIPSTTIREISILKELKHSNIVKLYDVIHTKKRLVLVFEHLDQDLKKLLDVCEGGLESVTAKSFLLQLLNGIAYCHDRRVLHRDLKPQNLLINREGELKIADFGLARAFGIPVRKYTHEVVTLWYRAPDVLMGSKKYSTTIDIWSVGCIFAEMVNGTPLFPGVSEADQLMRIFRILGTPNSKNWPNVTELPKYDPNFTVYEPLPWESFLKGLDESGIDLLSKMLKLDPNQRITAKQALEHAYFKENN

Cn1nc(C(F)(F)F)cc1-c1cnc(N2CCc3cc(S(=O)(=O)Nc4c(F)cc(Cl)cc4F)cc(N4CCCC4=O)c32)nc1 [TP-020]
inactive: [1] 82% | [2] 93% | [3] 78% | [4] 100% | [5] 92% | [6] 73% | [7] 86% | [8] 87% | [9] 73% | [10] 99% | [11] 86% | [12] 98% | [13] 70% | [14] 100% | [15] 100% | [16] 96% | [17] 98% | [18] 100% | [19] 100% | [20] 85% | [21] 81% | [22] 100% | [23] 88% | [24] 65% | [25] 82% | [26] 100% | [27] 82% | [28] 96% | [29] 100% | [30] 90% | [31] 100% | [32] 100% | [33] 81% | [34] 76% | [35] 81% | [36] 100% | [37] 100% | [38] 79% | [39] 68% | [40] 95% | [41] 75% | [42] 99% | [43] 81% | [44] 100% | [45] 85%

Nc1cnc(N2CCc3cc(S(=O)(=O)Nc4c(F)cc(Cl)cc4F)cc(N4CCCC4=O)c32)nc1
inactive: [1] 100% | [2] 85% | [3] 100% | [4] 94% | [5] 100% | [6] 100% | [7] 100% | [8] 86% | [9] 80% | [10] 83% | [11] 95% | [12] 100% | [13] 100% | [14] 98% | [15] 100% | [16] 100% | [17] 71% | [18] 100% | [19] 100% | [20] 86% | [21] 100% | [22] 98% | [23] 81% | [24] 100% | [25] 100% | [26] 77% | [27] 53% | [28] 86% | [29] 90% | [30] 100% | [31] 100% | [32] 78% | [33] 97% | [34] 84% | [35] 92% | [36] 100% | [37] 100% | [38] 100% | [39] 100% | [40] 100% | [41] 100% | [42] 97% | [43] 94% | [44] 100% | [45] 100%
